Laboratory results published in patent US20050002862A1, “Biological markers for evaluating therapeutic treatment of inflammatory and autoimmune disorders” (priority 2000, published 2005).

Tests used:
Assay type in all cases: in vivo, human
[1] = system: CD89 expression on granulocytes; test: CD89 expression on granulocytes in blood, microvolume laser scanning cytometry, before/after oral prednisone; conditions: after three days of oral prednisone, adjusted p-value < 0.001
Text: (§1) The inventive biomarkers were identified in a study of the effects of oral prednisone on biological markers of allergy and asthma. Eighty subjects were enrolled in the study, 23 with atopic asthma, 28 with allergy alone, 26 with neither allergy nor asthma (healthy controls), and 3 with asthma alone. Allergy was defined by a positive skin prick test. Mild asthma was defined as positive methacholine challenge within the last three months, as well as one or more of documented diagnosis of asthma, history of cough, recurrent wheeze, recurrent difficult breathing, and recurrent chest tightening. […] Cellular markers in the blood samples were evaluated using the SurroScan™ microvolume laser scanning cytometry system for multiparameter cellular analysis. […] In addition, the relative levels of 49 different cell surface antigens (activation antigens, co-stimulatory molecules, adhesion molecules, antigen receptors, cytokine receptors) on specific cell populations were measured. […] Each fluorophore was measured in a separate detection channel, and images were converted to flow cytometry standard format and analyzed with FlowJo™ cytometry analysis software. […] Following data acquisition, variables were analyzed to assess differences in subject groups before drug administration, as well as changes following drug administration. […]

[2] = system: CD38 expression on CD4 T cells; test: CD38 expression on CD4 T cells in blood, cytometry, before/after oral prednisone; conditions: after three days of oral prednisone; all disease groups; mean pre drug 32.9 (9.8); adjusted p-value < 0.001
Text: as §1

[3] = system: HLA class II expression on B cells; test: HLA class II expression on B cells in blood, cytometry, before/after oral prednisone; conditions: after three days of oral prednisone, all disease groups, adjusted p-value < 0.001
Text: The inventive biomarkers were identified in a study of the effects of oral prednisone on biological markers of allergy and asthma. Eighty subjects were enrolled in the study, 23 with atopic asthma, 28 with allergy alone, 26 with neither allergy nor asthma (healthy controls), and 3 with asthma alone. Allergy was defined by a positive skin prick test. Mild asthma was defined as positive methacholine challenge within the last three months, as well as one or more of documented diagnosis of asthma, history of cough, recurrent wheeze, recurrent difficult breathing, and recurrent chest tightening. Approximately half of the subjects from each disease group were given oral prednisone for three days, while the other half was given a placebo. Blood samples were taken before treatment and after three days of treatment with oral prednisone or placebo. Cellular markers in the blood samples were evaluated using the SurroScan™ microvolume laser scanning cytometry system for multiparameter cellular analysis. Monoclonal antigen-specific antibodies were purchased from commercial vendors and coupled to one of three different fluorophores, Cy5, Cy5.5, and Cy7-APC. Assays were performed to monitor cell counts of more than 200 different cell populations, including granulocytes, eosinophils, monocytes, CD4 and CD8 T cells, B cells, and NK cells. In addition, the relative levels of 49 different cell surface antigens (activation antigens, co-stimulatory molecules, adhesion molecules, antigen receptors, cytokine receptors) on specific cell populations were measured. […] Each fluorophore was measured in a separate detection channel, and images were converted to flow cytometry standard format and analyzed with FlowJo™ cytometry analysis software. […] Following data acquisition, variables were analyzed to assess differences in subject groups before drug administration, as well as changes following drug administration. A total of 713 variables, including cell populations, cell surface antigen expression, and soluble factors, were analyzed. […]

[4] = system: CD62L expression on B cells; test: CD62L expression on B cells in blood, cytometry, before/after oral prednisone; conditions: after three days of oral prednisone; all disease groups; mean pre drug 2998 (505); adjusted p-value < 0.001
Text: as §1

monocytes = test: Monocyte count in blood, cytometry, before/after oral prednisone; conditions: after three days of oral prednisone; all disease groups; mean pre drug 369 (121); adjusted p-value < 0.001
Text: as §1

[5] = system: HLA class II expression on monocytes; test: HLA class II expression on monocytes in blood, cytometry, before/after oral prednisone; conditions: after three days of oral prednisone, all disease groups, adjusted p-value < 0.001
Text: The inventive biomarkers were identified in a study of the effects of oral prednisone on biological markers of allergy and asthma. Eighty subjects were enrolled in the study, 23 with atopic asthma, 28 with allergy alone, 26 with neither allergy nor asthma (healthy controls), and 3 with asthma alone. Allergy was defined by a positive skin prick test. Mild asthma was defined as positive methacholine challenge within the last three months, as well as one or more of documented diagnosis of asthma, history of cough, recurrent wheeze, recurrent difficult breathing, and recurrent chest tightening. Approximately half of the subjects from each disease group were given oral prednisone for three days, while the other half was given a placebo. Blood samples were taken before treatment and after three days of treatment with oral prednisone or placebo. Cellular markers in the blood samples were evaluated using the SurroScan™ microvolume laser scanning cytometry system for multiparameter cellular analysis. Monoclonal antigen-specific antibodies were purchased from commercial vendors and coupled to one of three different fluorophores, Cy5, Cy5.5, and Cy7-APC. Assays were performed to monitor cell counts of more than 200 different cell populations, including granulocytes, eosinophils, monocytes, CD4 and CD8 T cells, B cells, and NK cells. In addition, the relative levels of 49 different cell surface antigens (activation antigens, co-stimulatory molecules, adhesion molecules, antigen receptors, cytokine receptors) on specific cell populations were measured. The prepared antibody-dye reagents were combined into cocktails and incubated with aliquots of whole or red blood cell-lysed blood in the dark at room temperature for 20 minutes. The samples were then diluted with an appropriate buffer and loaded into capillary arrays for analysis. Each fluorophore was measured in a separate detection channel, and images were converted to flow cytometry standard format and analyzed with FlowJo™ cytometry analysis software. Template gates were used to enumerate the cell populations of interest in all of the assays. Following data acquisition, variables were analyzed to assess differences in subject groups before drug administration, as well as changes following drug administration. A total of 713 variables, including cell populations, cell surface antigen expression, and soluble factors, were analyzed. […] Univariate tests were performed on individual variables, and the step-down Bonferroni p-value adjustment method of Holm was employed to control for multiple comparisons. The Bonferroni correction, which reduces the number of false positives, is described above. Univariate tests were performed on the data before and after drug administration for both the drug and placebo groups. In order to determine whether any non-normality of the data affected the tests, both non-parametric tests (sign rank or sign) and parametric paired t-tests were performed. Statistical tests for normality, skewness, and kurtosis were performed per variable to assess normality. For sufficiently normally distributed data, the paired t-test result was used; otherwise, the nonparametric result was used. All p-values were adjusted using the step-down Bonferroni method, maintaining the overall study false positive rate below 5%. […] When the analysis was performed on the separate disease classes individually, no significant differences were found before and after drug administration. Additionally, a linear-mixed model was used to evaluate fixed and random effects for the prednisone and placebo groups. This model notes the difference in response in the drug and placebo to indicate whether the observed trends can be attributed to the drug alone. The model, executed with PROC MIXED in SAS™, used the three fixed effects of drug, time, and (drug×time) to fit the data.

MMP-3 = MMP-3 concentration, sandwich ELISA, before/after oral prednisone; conditions: after three days of oral prednisone; all disease groups; mean pre drug 37 (29); adjusted p-value < 0.001
Text: (§2) The inventive biomarkers were identified in a study of the effects of oral prednisone on biological markers of allergy and asthma. Eighty subjects were enrolled in the study, 23 with atopic asthma, 28 with allergy alone, 26 with neither allergy nor asthma (healthy controls), and 3 with asthma alone. Allergy was defined by a positive skin prick test. Mild asthma was defined as positive methacholine challenge within the last three months, as well as one or more of documented diagnosis of asthma, history of cough, recurrent wheeze, recurrent difficult breathing, and recurrent chest tightening. Approximately half of the subjects from each disease group were given oral prednisone for three days, while the other half was given a placebo. Blood samples were taken before treatment and after three days of treatment with oral prednisone or placebo. […] Finally, the chemiluminescent alkaline phosphatase substrate was added and incubated before reading. Standard curves and analyte amounts were determined using curve fitting techniques. Following data acquisition, variables were analyzed to assess differences in subject groups before drug administration, as well as changes following drug administration. A total of 713 variables, including cell populations, cell surface antigen expression, and soluble factors, were analyzed. […]

SAA = SAA concentration, sandwich ELISA, before/after oral prednisone; conditions: after three days of oral prednisone; all disease groups; mean pre drug 2.73 (3.3); adjusted p-value < 0.001
Text: as §2

## C[C@]12C=CC(=O)C=C1CC[C@@H]1[C@@H]2C(=O)C[C@@]2(C)[C@H]1CC[C@]2(O)C(=O)CO [prednisone]
[1]; all disease groups (atopic, atopic asthmatic, healthy), mean pre drug 85 (20)
  CD89+ granulocyte population, Mean Post Drug (SD): 96 (9) % of total granulocytes
[1]; all disease groups, mean pre drug 2047 (1549)
  CD89 on granulocytes (expression intensity), Mean Post Drug (SD): 2527 (1691) arbitrary units
[2]
  CD38+ CD4 T cells, Mean Post Drug (SD): 29.3 (9.1) % of all CD4 T cells
[3]; mean pre drug 3123 (1090)
  HLA-DQ on B cells (expression intensity), Mean Post Drug (SD): 1680 (817) arbitrary units
[3]; mean pre drug 8108 (2711)
  HLA-DR on B cells (expression intensity), Mean Post Drug (SD): 4486 (2025) arbitrary units
[3]; mean pre drug 11684 (3190)
  HLA-PAN on B cells (expression intensity), Mean Post Drug (SD): 6550 (3123) arbitrary units
[4]
  CD62L on B cells (expression intensity), Mean Post Drug (SD): 2479 (478) arbitrary units
monocytes
  Monocytes (count), Mean Post Drug (SD): 478 (160) cells/μl
[5]; mean pre drug 8.7 (4.39)
  HLADQ+ monocyte population, Mean Post Drug (SD): 3.6 (2.49) % of total monocytes
[5]; mean pre drug 84.4 (14.0)
  HLADR+ monocyte population, Mean Post Drug (SD): 75.4 (16.9) % of total monocytes
[5]; mean pre drug 91.8 (8.4)
  HLAPAN+ monocyte population, Mean Post Drug (SD): 83.0 (15.1) % of total monocytes
[5]; mean pre drug 165 (103)
  HLA-DQ on monocytes (expression intensity), Mean Post Drug (SD): 69 (52) arbitrary units
[5]; mean pre drug 2966 (1068)
  HLA-DR on monocytes (expression intensity), Mean Post Drug (SD): 1970 (729) arbitrary units
[5]; mean pre drug 4961 (1738)
  HLA-PAN on monocytes (expression intensity), Mean Post Drug (SD): 3196 (1046) arbitrary units
MMP-3
  MMP-3 concentration, Mean Post Drug (SD): 188 (140) ng/ml
SAA
  SAA concentration, Mean Post Drug (SD): 6.71 (14.5) μg/ml
